Tests used:
Format in all cases: cell-based, human
[1] = tested on: T-47D (Breast Cancer); assay: NCI one dose, T-47D; conditions: 1.00E-5 Molar one dose
Experimental: (§1) 3.4. Cell Proliferation Assay
(§2) Selected compounds were tested on a panel of 60 human cancer cell lines at the National Cancer Institute (NCI), Germantown, MD, USA. The cytotoxicity studies were conducted using a 48 h exposure protocol using the sulfo-rhodamine B assay.

[2] = tested on: TK-10 (Renal Cancer); assay: NCI one dose, TK-10; conditions: TK-10, 1.00E-5 Molar one dose
Experimental: as §1, §2

[3] = tested on: COLO 205 (Colon Cancer); assay: NCI one dose, COLO 205; conditions: COLO 205, 1.00E-5 Molar one dose
Experimental: as §1, §2

[4] = tested on: BT-549 (Breast Cancer); assay: NCI one dose, BT-549; conditions: BT-549, 1.00E-5 Molar one dose
Experimental: as §1, §2

[5] = tested on: HCT-15 (Colon Cancer); assay: NCI one dose, HCT-15; conditions: HCT-15, 1.00E-5 Molar one dose
Experimental: as §1, §2

[6] = tested on: PC-3 (Prostate Cancer); assay: NCI one dose, PC-3; conditions: PC-3, 1.00E-5 Molar one dose
Experimental: as §1, §2

[7] = tested on: MDA-MB-468 breast cancer cells; assay: NCI one dose, MDA-MB-468; conditions: MDA-MB-468, 1.00E-5 Molar one dose
Experimental: as §1, §2

[8] = tested on: SF-268 (CNS Cancer); assay: NCI one dose, SF-268; conditions: SF-268, 1.00E-5 Molar one dose
Experimental: as §1, §2

[9] = tested on: CAKI-1 (Renal Cancer); assay: NCI one dose, CAKI-1; conditions: CAKI-1, 1.00E-5 Molar one dose
Experimental: as §1, §2

[10] = tested on: KM12 (Colon Cancer); assay: NCI one dose, KM12; conditions: KM12, 1.00E-5 Molar one dose
Experimental: as §1, §2

[11] = tested on: NCI-H460 (Non-Small Cell Lung Cancer); assay: NCI one dose, NCI-H460; conditions: NCI-H460, 1.00E-5 Molar one dose
Experimental: as §1, §2

[12] = tested on: 786-0 (Renal Cancer); assay: NCI one dose, 786-0; conditions: 786-0, 1.00E-5 Molar one dose
Experimental: as §1, §2

[13] = tested on: UACC-257 melanoma cells; assay: NCI one dose, UACC-257; conditions: UACC-257, 1.00E-5 Molar one dose
Experimental: as §1, §2

[14] = tested on: NCI-H522 non-small cell lung cancer cells; assay: NCI cell proliferation, NCI-H522; conditions: for inhibition at 10 µM: Homo sapiens, NCI-H522, read-out: % Cancer cell growth Inhibition (NCI-H522); for Growth Percent: NCI-H522, 1.00E-5 Molar one dose
Experimental: as §1, §2

[15] = tested on: OVCAR-5 (Ovarian Cancer); assay: NCI one dose, OVCAR-5; conditions: OVCAR-5, 1.00E-5 Molar one dose
Experimental: as §1, §2

[16] = tested on: MALME-3M (Melanoma); assay: NCI one dose, MALME-3M; conditions: 1.00E-5 Molar one dose
Experimental: as §1, §2

[17] = tested on: HOP-62 (Non-Small Cell Lung Cancer); assay: NCI one dose, HOP-62; conditions: HOP-62, 1.00E-5 Molar one dose
Experimental: as §1, §2

[18] = tested on: UACC-62 (Melanoma); assay: NCI one dose, UACC-62; conditions: UACC-62, 1.00E-5 Molar one dose
Experimental: as §1, §2

[19] = tested on: HS 578T (Breast Cancer); assay: NCI one dose, HS 578T; conditions: 1.00E-5 Molar one dose
Experimental: as §1, §2

[20] = tested on: RPMI-8226 (Leukemia); assay: NCI one dose, RPMI-8226; conditions: RPMI-8226, 1.00E-5 Molar one dose
Experimental: as §1, §2

[21] = tested on: NCI-H322M (Non-Small Cell Lung Cancer); assay: NCI one dose, NCI-H322M; conditions: 1.00E-5 Molar one dose
Experimental: as §1, §2

[22] = tested on: HCC-2998 (Colon Cancer); assay: NCI one dose, HCC-2998; conditions: HCC-2998, 1.00E-5 Molar one dose
Experimental: as §1, §2

[23] = tested on: MDA-MB-231/ATCC (Breast Cancer); assay: NCI one dose, MDA-MB-231/ATCC; conditions: 1.00E-5 Molar one dose
Experimental: as §1, §2

[24] = tested on: U251 (CNS Cancer); assay: NCI one dose, U251; conditions: U251, 1.00E-5 Molar one dose
Experimental: as §1, §2

[25] = tested on: HT29 (Colon Cancer); assay: NCI one dose, HT29; conditions: HT29, 1.00E-5 Molar one dose
Experimental: as §1, §2

[26] = tested on: SNB-19 (CNS Cancer); assay: NCI one dose, SNB-19; conditions: SNB-19, 1.00E-5 Molar one dose
Experimental: as §1, §2

[27] = tested on: A498 (Renal Cancer); assay: NCI one dose, A498; conditions: A498, 1.00E-5 Molar one dose
Experimental: as §1, §2

[28] = tested on: SK-MEL-28 (Melanoma); assay: NCI one dose, SK-MEL-28; conditions: SK-MEL-28, 1.00E-5 Molar one dose
Experimental: as §1, §2

[29] = tested on: SW-620 (Colon Cancer); assay: NCI one dose, SW-620; conditions: SW-620, 1.00E-5 Molar one dose
Experimental: as §1, §2

[30] = tested on: ACHN (Renal Cancer); assay: NCI one dose, ACHN; conditions: 1.00E-5 Molar one dose
Experimental: as §1, §2

[31] = tested on: MOLT-4 (Leukemia); assay: NCI one dose, MOLT-4; conditions: MOLT-4, 1.00E-5 Molar one dose
Experimental: as §1, §2

[32] = tested on: SF-295 (CNS Cancer); assay: NCI one dose, SF-295; conditions: SF-295, 1.00E-5 Molar one dose
Experimental: as §1, §2

[33] = tested on: DU-145 (Prostate Cancer); assay: NCI one dose, DU-145; conditions: DU-145, 1.00E-5 Molar one dose
Experimental: as §1, §2

[34] = tested on: IGROV1 (Ovarian Cancer); assay: NCI one dose, IGROV1; conditions: IGROV1, 1.00E-5 Molar one dose
Experimental: as §1, §2

[35] = tested on: SK-MEL-2 (Melanoma); assay: NCI one dose, SK-MEL-2; conditions: SK-MEL-2, 1.00E-5 Molar one dose
Experimental: as §1, §2

[36] = tested on: SK-OV-3 (Ovarian Cancer); assay: NCI one dose, SK-OV-3; conditions: SK-OV-3, 1.00E-5 Molar one dose
Experimental: as §1, §2

[37] = tested on: M14 (Melanoma); assay: NCI one dose, M14; conditions: M14, 1.00E-5 Molar one dose
Experimental: as §1, §2

C[C@@]12SC[C@@H](C(=O)NCc3ccccc3)N1C(=O)c1ccccc12 [4bA]
Growth Percent [1]: 90.12%
Growth Percent [2]: 85.29%
Growth Percent [3]: 108.00%
Growth Percent [4]: 106.90%
Growth Percent [5]: 98.84%
Growth Percent [6]: 90.34%
Growth Percent [7]: 99.04%
Growth Percent [8]: 109.78%
Growth Percent [9]: 89.87%
Growth Percent [10]: 102.18%
Growth Percent [11]: 111.12%
Growth Percent [12]: 101.14%
Growth Percent [13]: 79.51%
inhibition at 10 µM [14]: 25%
Growth Percent [14]: 74.90%
Growth Percent [15]: 97.87%
Growth Percent [16]: 107.28%
Growth Percent [17]: 100.09%
Growth Percent [18]: 97.03%
Growth Percent [19]: 100.47%
Growth Percent [20]: 104.44%
Growth Percent [21]: 96.63%
Growth Percent [22]: 113.03%
Growth Percent [23]: 99.53%
Growth Percent [24]: 92.28%
Growth Percent [25]: 80.95%
Growth Percent [26]: 100.20%
Growth Percent [27]: 91.48%
Growth Percent [28]: 105.22%
Growth Percent [29]: 108.38%
Growth Percent [30]: 102.90%
Growth Percent [31]: 93.49%
Growth Percent [32]: 98.04%
Growth Percent [33]: 110.52%
Growth Percent [34]: 105.63%
Growth Percent [35]: 92.83%
Growth Percent [36]: 102.08%
Growth Percent [37]: 101.98%

C[C@@]12SC[C@@H](C(=O)NCc3ccccc3Br)N1C(=O)c1ccccc12 [4bB]
Growth Percent [1]: 83.93%
Growth Percent [2]: 99.69%
Growth Percent [3]: 111.70%
Growth Percent [4]: 107.51%
Growth Percent [5]: 95.65%
Growth Percent [6]: 78.76%
Growth Percent [7]: 88.64%
Growth Percent [8]: 96.91%
Growth Percent [9]: 79.18%
Growth Percent [10]: 100.14%
Growth Percent [11]: 103.30%
Growth Percent [12]: 101.65%
Growth Percent [13]: 75.54%
inhibition at 10 µM [14]: 22%
Growth Percent [14]: 78.46%
Growth Percent [15]: 93.99%
Growth Percent [16]: 97.54%
Growth Percent [17]: 99.61%
Growth Percent [18]: 82.12%
Growth Percent [19]: 91.10%
Growth Percent [20]: 91.24%
Growth Percent [21]: 99.70%
Growth Percent [22]: 97.16%
Growth Percent [23]: 97.39%
Growth Percent [24]: 91.25%
Growth Percent [25]: 83.02%
Growth Percent [26]: 100.80%
Growth Percent [27]: 75.85%
Growth Percent [28]: 104.28%
Growth Percent [29]: 103.50%
Growth Percent [30]: 106.88%
Growth Percent [31]: 82.96%
Growth Percent [32]: 92.26%
Growth Percent [33]: 101.37%
Growth Percent [34]: 97.21%
Growth Percent [35]: 85.75%
Growth Percent [36]: 88.35%
Growth Percent [37]: 107.44%

C[C@@]12SC[C@@H](C(=O)NCc3ccccc3C(F)(F)F)N1C(=O)c1ccccc12 [4bC]
Growth Percent [1]: 86.40%
Growth Percent [2]: 92.04%
Growth Percent [3]: 104.03%
Growth Percent [4]: 104.97%
Growth Percent [5]: 100.40%
Growth Percent [6]: 80.00%
Growth Percent [7]: 101.77%
Growth Percent [8]: 103.76%
Growth Percent [9]: 84.55%
Growth Percent [10]: 100.49%
Growth Percent [11]: 105.02%
Growth Percent [12]: 101.91%
Growth Percent [13]: 73.01%
inhibition at 10 µM [14]: 19%
Growth Percent [14]: 80.71%
Growth Percent [15]: 102.51%
Growth Percent [16]: 112.02%
Growth Percent [17]: 97.48%
Growth Percent [18]: 87.36%
Growth Percent [19]: 94.37%
Growth Percent [20]: 87.02%
Growth Percent [21]: 101.48%
Growth Percent [22]: 105.71%
Growth Percent [23]: 100.45%
Growth Percent [24]: 91.69%
Growth Percent [25]: 79.15%
Growth Percent [26]: 103.86%
Growth Percent [27]: 79.95%
Growth Percent [28]: 111.34%
Growth Percent [29]: 104.67%
Growth Percent [30]: 106.49%
Growth Percent [31]: 74.60%
Growth Percent [32]: 93.93%
Growth Percent [33]: 102.05%
Growth Percent [34]: 103.13%
Growth Percent [35]: 87.91%
Growth Percent [36]: 100.95%
Growth Percent [37]: 100.54%

C[C@@]12SC[C@@H](C(=O)NCc3cccc(C(F)(F)F)c3)N1C(=O)c1ccccc12 [4bD]
Growth Percent [1]: 89.18%
Growth Percent [2]: 101.65%
Growth Percent [3]: 104.27%
Growth Percent [4]: 100.02%
Growth Percent [5]: 95.74%
Growth Percent [6]: 92.84%
Growth Percent [7]: 97.93%
Growth Percent [8]: 102.43%
Growth Percent [9]: 80.18%
Growth Percent [10]: 99.50%
Growth Percent [11]: 109.48%
Growth Percent [12]: 100.40%
Growth Percent [13]: 74.68%
inhibition at 10 µM [14]: 31%
Growth Percent [14]: 68.93%
Growth Percent [15]: 104.21%
Growth Percent [16]: 99.33%
Growth Percent [17]: 90.69%
Growth Percent [18]: 87.82%
Growth Percent [19]: 96.99%
Growth Percent [20]: 85.05%
Growth Percent [21]: 100.14%
Growth Percent [22]: 110.65%
Growth Percent [23]: 97.63%
Growth Percent [24]: 94.94%
Growth Percent [25]: 78.21%
Growth Percent [26]: 99.21%
Growth Percent [27]: 85.48%
Growth Percent [28]: 108.59%
Growth Percent [29]: 108.66%
Growth Percent [30]: 95.88%
Growth Percent [31]: 75.84%
Growth Percent [32]: 92.24%
Growth Percent [33]: 108.47%
Growth Percent [34]: 99.72%
Growth Percent [35]: 85.25%
Growth Percent [36]: 97.14%
Growth Percent [37]: 103.59%

Source: article PMC11855478, “Bicyclic N,S-Acetals Containing Fused Cysteine-Amide System as New Heterocyclic Class Targeting Human Farnesyltransferase (FTase-h)” (International Journal of Molecular Sciences, 2025)
